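Grown in 96-well plates, cells were treated for 48 hours with each compound at five concentrations. Insufficient inhibition: endpoint recorded as highest concentration tested. Abbreviation: GI50, concentration required for 50% inhibition of growth.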 Activity calls are given as the source filed them. Cut-off read from the data, not from the text of the source: active = GI50 up to about 1.1 µM and inactive = higher.
Assays:
Assay in all cases: NCI tumour cell line growth inhibition, 48 h
MDA-MB-231 = system: MDA-MB-231
SNB-19 = system: SNB-19
MOLT-4 = system: MOLT-4
PC-3 = system: PC-3
MDA-N = system: MDA-N
MDA-MB-435 = system: MDA-MB-435
SW-620 = system: SW-620
NCI-H522 = system: NCI-H522
RXF 393 = system: RXF 393
SK-OV-3 = system: SK-OV-3
HT-29 = system: HT-29
SNB-75 = system: SNB-75
U-251 = system: U-251
A549 = system: A549
SK-MEL-5 = system: SK-MEL-5
Hs-578T = system: Hs-578T

Row | Structure (SMILES) | GI50 (MDA-MB-231) | GI50 (SNB-19) | GI50 (MOLT-4) | GI50 (PC-3) | GI50 (MDA-N) | GI50 (MDA-MB-435) | GI50 (SW-620) | GI50 (NCI-H522) | GI50 (RXF 393) | GI50 (SK-OV-3) | GI50 (HT-29) | GI50 (SNB-75) | GI50 (U-251) | GI50 (A549) | GI50 (SK-MEL-5) | GI50 (Hs-578T)
1 | CCOC(=O)c1cc(Br)c(-c2cc(C)no2)[nH]1 | 29.2 µM (inactive) | 80.4 µM (inactive) | 82 µM (inactive) | 28.4 µM (inactive) | 23.2 µM (inactive) | 14.3 µM (inactive) | 30 µM (inactive) | 20.7 µM (inactive) | 31 µM (inactive) | 41.6 µM (inactive) | 41.6 µM (inactive) | 23.9 µM (inactive) | 25.5 µM (inactive) | 24.9 µM (inactive) | 21.7 µM (inactive) | 
2 | COc1ccc(-c2cc(-c3ccccc3)n(C3OC(COC(C)=O)C(OC(C)=O)C(OC(C)=O)C3OC(C)=O)c(=S)c2C#N)cc1 (configuration not stated) | 4.79 µM (inactive) | 11.1 µM (inactive) | 17.9 µM (inactive) | 12.4 µM (inactive) | 8.05 µM (inactive) | 6.89 µM (inactive) | 13.9 µM (inactive) | 5.37 µM (inactive) | 11.2 µM (inactive) | 18.8 µM (inactive) | 6.28 µM (inactive) | 6.38 µM (inactive) | 6.79 µM (inactive) | 10.6 µM (inactive) | 6.71 µM (inactive) | 5.71 µM (inactive)
3 | CC1CC/C(=C\c2ccc(N(C)C)cc2)C2=C1C(c1ccc(N(C)C)cc1)NC(=S)N2 (configuration not stated) | > 100 µM (inactive) | > 100 µM (inactive) | > 100 µM (inactive) | 40.3 µM (inactive) | > 100 µM (inactive) | > 100 µM (inactive) | > 100 µM (inactive) |  | > 100 µM (inactive) | > 100 µM (inactive) | > 100 µM (inactive) | > 100 µM (inactive) | > 100 µM (inactive) |  | > 100 µM (inactive) | > 100 µM (inactive)
4 | O=C1CSC(c2cc3cc(Br)ccc3nc2Cl)N1c1ccc(Cl)cc1 (configuration not stated) | 33.1 µM (inactive) | 42.7 µM (inactive) | 17.4 µM (inactive) | 41.2 µM (inactive) | 27.4 µM (inactive) | 16.8 µM (inactive) | 34.3 µM (inactive) | 17.8 µM (inactive) | 20.8 µM (inactive) | 43.3 µM (inactive) | 32.9 µM (inactive) | 52.2 µM (inactive) |  | 28.1 µM (inactive) | 14 µM (inactive) | 35.9 µM (inactive)
5 | CC(=O)c1c2c(cc3c1CC1(Cc4cc5c(cc4C1)C(=O)CCC5)C3)CCCC2 (configuration not stated) | 9.25 µM (inactive) | 13.8 µM (inactive) | 2.59 µM (inactive) | 5.53 µM (inactive) | 2.87 µM (inactive) | 2.94 µM (inactive) | 5.25 µM (inactive) | 4.31 µM (inactive) |  | > 54.8 µM (inactive) | 3.25 µM (inactive) | 2.92 µM (inactive) | 10.8 µM (inactive) | > 21.5 µM (inactive) | 2.21 µM (inactive) | > 29.9 µM (inactive)
6 | COC(=O)[C@H](Cc1ccccc1)NC(=O)N(CCNC(=O)OC(C)(C)C)c1ccccc1 | > 100 µM (inactive) | > 100 µM (inactive) | > 100 µM (inactive) | > 100 µM (inactive) | > 100 µM (inactive) | > 100 µM (inactive) | > 100 µM (inactive) | > 100 µM (inactive) | 87.1 µM (inactive) | > 100 µM (inactive) | > 100 µM (inactive) | > 100 µM (inactive) | > 100 µM (inactive) | > 100 µM (inactive) | > 100 µM (inactive) | > 100 µM (inactive)
7 | CN(C)C(=O)NCCN1CCCCCc2ccccc21 | 57.1 µM (inactive) | > 100 µM (inactive) | 93.1 µM (inactive) | > 100 µM (inactive) | > 100 µM (inactive) | 53 µM (inactive) | > 100 µM (inactive) | > 100 µM (inactive) | > 100 µM (inactive) | > 100 µM (inactive) | > 100 µM (inactive) |  | > 100 µM (inactive) | > 100 µM (inactive) | 24.3 µM (inactive) | > 100 µM (inactive)
8 | O=C(/C=C/c1ccc(OCc2ccccc2)cc1)NCc1ccc(C(=O)NCc2ccccc2)cc1 | > 100 µM (inactive) | > 100 µM (inactive) | > 100 µM (inactive) | > 100 µM (inactive) | > 100 µM (inactive) | > 100 µM (inactive) | > 100 µM (inactive) | > 100 µM (inactive) | 0.687 µM (active) | > 100 µM (inactive) | > 100 µM (inactive) | 36.6 µM (inactive) | > 100 µM (inactive) | > 100 µM (inactive) | > 100 µM (inactive) | > 100 µM (inactive)
9 | Cc1ccc(/C=C/C(=O)c2c([O-])on[n+]2-c2ccccc2)cc1 | 4.98 µM (inactive) | 3.98 µM (inactive) | 2.34 µM (inactive) | 4.72 µM (inactive) | 2.92 µM (inactive) | 2.3 µM (inactive) | 2.46 µM (inactive) | 2.61 µM (inactive) | 1.94 µM (inactive) | 8.09 µM (inactive) | 1.9 µM (inactive) |  | 2.79 µM (inactive) | 3.67 µM (inactive) | 3.71 µM (inactive) | 2.47 µM (inactive)
10 | CC[C@H](O)[C@H](C)C=C1SCCCS1 | > 100 µM (inactive) |  | > 100 µM (inactive) | > 100 µM (inactive) | > 100 µM (inactive) | > 100 µM (inactive) | > 100 µM (inactive) | > 100 µM (inactive) | > 100 µM (inactive) | > 100 µM (inactive) | > 100 µM (inactive) | > 100 µM (inactive) | > 100 µM (inactive) | > 100 µM (inactive) | > 100 µM (inactive) | > 100 µM (inactive)
11 | O=C(Nn1c(-c2ccccc2)nc2ccccc2c1=O)c1ccc(CS)cc1 | 37 µM (inactive) | > 100 µM (inactive) | 16.6 µM (inactive) | 20.2 µM (inactive) | 61.2 µM (inactive) | 41.8 µM (inactive) | 31.1 µM (inactive) | 52.2 µM (inactive) | 44.7 µM (inactive) | 82.8 µM (inactive) | 53 µM (inactive) | 39.7 µM (inactive) | 27.6 µM (inactive) | 36.7 µM (inactive) | 11.8 µM (inactive) | 35.6 µM (inactive)
12 | Cn1cc(-c2csc(-c3cn(C)c4ccccc34)n2)c2ccccc21 | 17.3 µM (inactive) | 42.7 µM (inactive) | 14.1 µM (inactive) | 21.9 µM (inactive) | 24.9 µM (inactive) | 26.4 µM (inactive) | 59.4 µM (inactive) | 76.7 µM (inactive) | 14.1 µM (inactive) |  | > 100 µM (inactive) |  | 32.4 µM (inactive) | 37.6 µM (inactive) | 26.9 µM (inactive) | > 100 µM (inactive)
13 | COc1cccc(OCC(=N/NC(=O)c2ccncc2)/N=C/c2ccncc2)c1 | > 100 µM (inactive) | > 100 µM (inactive) | > 100 µM (inactive) | > 100 µM (inactive) | > 100 µM (inactive) | > 100 µM (inactive) | > 100 µM (inactive) | > 100 µM (inactive) | 52 µM (inactive) | > 100 µM (inactive) | > 100 µM (inactive) |  | > 100 µM (inactive) | > 100 µM (inactive) |  | > 100 µM (inactive)
14 | OC[C@H]1C[C@@H]2Cc3ccccc3N2N1 | > 100 µM (inactive) | > 100 µM (inactive) | > 100 µM (inactive) | > 100 µM (inactive) | > 100 µM (inactive) | > 100 µM (inactive) | > 100 µM (inactive) | > 100 µM (inactive) | > 100 µM (inactive) | > 100 µM (inactive) | > 100 µM (inactive) | > 100 µM (inactive) | > 100 µM (inactive) | > 100 µM (inactive) | > 100 µM (inactive) | > 100 µM (inactive)
15 | Cc1cccc(/C=N/NC(=S)NCCc2ccccn2)n1 | 39 µM (inactive) | 37.1 µM (inactive) | 18.9 µM (inactive) | 35.2 µM (inactive) | 60.8 µM (inactive) | 27.4 µM (inactive) | 42.5 µM (inactive) | 34.8 µM (inactive) |  | 14.1 µM (inactive) | 27.9 µM (inactive) | 20.3 µM (inactive) | 20.4 µM (inactive) | 36.6 µM (inactive) | 26.1 µM (inactive) | 53.5 µM (inactive)
16 | CC1=CC(C)C(C)N(CC2=NCCN2)c2ccccc21 (configuration not stated) | 32.9 µM (inactive) | > 100 µM (inactive) | 55 µM (inactive) | 46.3 µM (inactive) | 52.5 µM (inactive) | 46.5 µM (inactive) | > 100 µM (inactive) | 29.2 µM (inactive) | 27.6 µM (inactive) | 96.8 µM (inactive) | 18.7 µM (inactive) | 46 µM (inactive) | 76.6 µM (inactive) | > 87.3 µM (inactive) | 20.1 µM (inactive) | > 74.3 µM (inactive)
17 | N#CCN(Cc1ccccc1)[C@H]1CCC[C@]1(O)/C=C/c1ccc2c(c1)OCO2 | 21.4 µM (inactive) | 25.2 µM (inactive) | 21.7 µM (inactive) | 16.8 µM (inactive) | 17.6 µM (inactive) | 20 µM (inactive) | 20.8 µM (inactive) | 17 µM (inactive) | 23.6 µM (inactive) | 46.6 µM (inactive) | 16 µM (inactive) | 28.4 µM (inactive) | 19.2 µM (inactive) | 38.4 µM (inactive) | 16.5 µM (inactive) | 17.2 µM (inactive)
18 | CCCCC1Cc2ccccc2-c2n1c1ccccc1[n+]2C (configuration not stated) | 22.2 µM (inactive) |  | 12.3 µM (inactive) | 5.93 µM (inactive) | 12.3 µM (inactive) | 10.3 µM (inactive) | 23.7 µM (inactive) | 3.87 µM (inactive) | 13.3 µM (inactive) | 35.9 µM (inactive) | 10 µM (inactive) |  | 3.1 µM (inactive) |  | 4.54 µM (inactive) | 12.1 µM (inactive)

— ChEMBL document CHEMBL1201862, “PubChem BioAssay data set” (2004)
